Here are results for one substance from patent publication US20220193111A1, “Method of Treatment” (The University Court of the University of Edinburgh, priority 2018, published 2022).

The data set relates to HUVECs. As to the kind of experiment: Immunofluorescence of transfected HUVECs. Format: cell-based, human. The following applies: anti-miR, 48 hrs. As to the method:
Cells were fixed using 4% paraformaldehyde in PBS at room temperature for 15 min. For intracellular staining, fixed cells were permeabilized using 0.5% Triton X-100 in PBS (Sigma-Aldrich) or 0.1% Saponin in PBS at room temperature for 10 min. The blocking of […] antibody activity was performed using 3% bovine serum albumin (BSA) in PBS for 1 hour. Samples were incubated with antibodies to CD31 (Abcam, ab28364, 1:50), VE-cadherin (Abcam, ab33168, 1:100), FSP-1 (Abcam, ab41532, 1:200) and COL1A1 (Abcam, ab138492, 1:100) in PBS containing 1% BSA at 4° C. overnight. Samples were washed extensively with PBS and incubated with Alexa-Fluor-488-conjugated antibodies to rabbit IgG (Life Technologies, Carlsbad, Calif., #A11070) and Alexa-Fluor-594-conjugated antibodies to rabbit IgG (Life Technologies, Carlsbad, Calif., #A11072) in DAPI with PBS with 1% BSA at room temperature for 1 h. Image analysis was performed on Zeiss LSM 780 confocal microscope.

As for “anti-miR-148b: miR-148b inhibitor oligonucleotide; suitable inhibitor: hsa-miR-148b-3p miRCURY LNA inhibitor, CAAAGTTCTGTGATGCACTG (SEQ ID NO: 6) (commercial miRCURY LNA inhibitor, LNA positions not given here)”, the “CD31 and VE-cadherin immunoreactivity” value is “pronounced decrease”; the “COL1A1 and FSP-1 immunoreactivity” value is listed as “increase”; the rounded/cobblestone morphology entry was “lost”.
